Experimental data reported in patent publication US20060093690A1, “Novel therapeutic use of polypodium extracts” (Especialidades Farmaceuticas Centrum, S.A., priority 2002, published 2006).

Assays:
TFG-β expression = details: rats, Peyronie's disease by injection of TGF-β in penis; cited from earlier work
Peyronie's patients [1] = details: 60 patients, 10 months; cited from earlier work
Peyronie's patients [2] = assay: Clinical trial on 34 Peyronie's patients for 6 months, Polypodium versus Tamoxifen; assay type: in vivo, human
Protocol: (§1) The obtained results were statically significant.
(§2) The patients of Polypodium group were treated with 720 mg of Polypodium extract, orally, at 8-hourly intervals.
(§3) The patients of Tamoxifen group were treated with 20 mg of Tamoxifen, orally, at 24-hourly intervals.
The age was similar in both groups.
The plaque was assessed by physical examination and penis ecography.
Penis incurvation was assessed by photograph.

IL-10 = IL-10 production in Peyronie's patients post treatment; assay type: in vivo, human; details: compared with initial values
Protocol: as §1, §2, §3
Also, a 17% post treatment decrease in IL-10 production in Polypodium group when compared with initial values, against 79% in Tamoxifen group.

Peyronie's disease = details: comparative clinical study; cited from earlier work
[3] = on administration; cited from earlier work
TGF-β = TGF-β production in Peyronie's patients post treatment; assay type: in vivo, human; details: compared with initial values, Tamoxifen group
Protocol: as §1, §2, §3
A 22% post treatment decrease in TGF-β production was found in Polypodium group when compared with initial values, against 5% in Tamoxifen group.

[4] = 6 months, oral, assessed by photograph
[5] = 6 months, oral, physical examination and penis ecography

SMILES: COc1cc2c(c(OC)c1OC)-c1ccc(OC)c(=O)cc1[C@@H](NC(C)=O)CC2 [colchicin]
- effect on TFG-β expression (TFG-β expression): reduces TFG-β expression
- penis incurvature improved, % of patients (Peyronie's patients [1]): 30%
- penis incurvature no change/unchanged, % of patients (Peyronie's patients [1]): 48%
- penis incurvature worse/deteriorated, % of patients (Peyronie's patients [1]): 22%

SMILES: CC/C(=C(\c1ccccc1)c1ccc(OCCN(C)C)cc1)c1ccccc1 [Tamoxifen]
- Coital difficulty, Improv, % of patients (Peyronie's patients [2]; 6 months, oral): 40%
- Coital difficulty, Improv, number of patients (Peyronie's patients [2]; 6 months, oral): 6
- Coital difficulty, Same, % of patients (Peyronie's patients [2]; 6 months, oral): 20%
- Coital difficulty, Same, number of patients (Peyronie's patients [2]; 6 months, oral): 3
- Coital difficulty, Worse, % of patients (Peyronie's patients [2]; 6 months, oral): 40%
- Coital difficulty, Worse, number of patients (Peyronie's patients [2]; 6 months, oral): 6
- Pain, Improv, % of patients (Peyronie's patients [2]; 6 months, oral): 66%
- Pain, Improv, number of patients (Peyronie's patients [2]; 6 months, oral): 10
- Pain, Same, % of patients (Peyronie's patients [2]; 6 months, oral): 33%
- Pain, Same, number of patients (Peyronie's patients [2]; 6 months, oral): 5
- Pain, Worse, number of patients (Peyronie's patients [2]; 6 months, oral): 0
- Penis incurvation, Same, % of patients (Peyronie's patients [2]; 6 months, oral): 33%
- Penis incurvation, Same, number of patients (Peyronie's patients [2]; 6 months, oral): 5
- Penis incurvation, Worse, % of patients (Peyronie's patients [2]; 6 months, oral): 20%
- Penis incurvation, Worse, number of patients (Peyronie's patients [2]; 6 months, oral): 3
- Plaque, Same, % of patients (Peyronie's patients [2]; 6 months, oral): 53%
- Plaque, Same, number of patients (Peyronie's patients [2]; 6 months, oral): 8
- Plaque, Worse, % of patients (Peyronie's patients [2]; 6 months, oral): 20%
- Plaque, Worse, number of patients (Peyronie's patients [2]; 6 months, oral): 3
- Penis incurvation, Improv, % of patients (Peyronie's patients [2]; [4]): 46%
- Penis incurvation, Improv, number of patients (Peyronie's patients [2]; [4]): 7
- Plaque, Improv, % of patients (Peyronie's patients [2]; [5]): 27%
- Plaque, Improv, number of patients (Peyronie's patients [2]; [5]): 4
- patients of group satisfied after treatment (Peyronie's patients [2]; after treatment): 45%
- post treatment decrease in IL-10 production (IL-10): 79%
- results versus placebo (Peyronie's disease): similar
- adverse effects [3]: diminution of sexual desire and diminution of the eyaculate
- post treatment decrease in TGF-β production (TGF-β): 5%
